Read-outs that look alike come from different tables or passages of the source.
How the values were obtained:
[1] = tested on: Haemonchus contortus; experiment: Haemonchus contortus assay (HAEMCO), larval mortality; format: cell-based; conditions: after 5 days
Experimental: Haemonchus Contortus—Assay (HAEMCO)
(§1) Solvent: dimethyl sulfoxide
(§2) To produce a suitable preparation, 10 mg of active compound are dissolved in 0.5 ml solvent, and the concentrate is diluted with “Ringer's solution” to the desired concentration.
Approximately 40 larvae of the red stomach worm (Haemonchus contortus) are transferred into a test tube containing compound solution.
After 5 days percentage of larval mortality are recorded. 100% efficacy means all larvae are killed, 0% efficacy means no larvae are killed.

[2] = tested on: Cooperia curticei; experiment: Cooperia curticei assay (COOPCU), larval mortality; format: cell-based; conditions: Cooperia curticei, 120 h, after 5 days, read-out: activity (percentage of larval mortality); for mortality at 20 ppm: application rate 20 ppm
Experimental: Cooperia Curticei—Assay (COOPCU)
as §1, §2
Approximately 40 nematode larvae (Cooperia curticei) are transferred into a test tube containing the compound solution.
After 5 days percentage of larval mortality is recorded. 100% efficacy means all larvae are killed; 0% efficacy means no larvae are killed.

[3] = Measurement of LogP values by HPLC on reversed phase columns (EEC directive 79/831 Annex V.A8); format: physicochemical; conditions: acidic range, 0.1% formic acid in water and acetonitrile as eluent; for chromatographic logP: read-out: logP (HCOOH)[a]
[4] = tested on: Meloidogyne incognita; experiment: Meloidogyne incognita assay (MELGIN), gall formation on salad seedlings; format: in vivo; conditions: application rate 20 ppm, after 14 days
Experimental: Meloidogyne Incognita—Assay (MELGIN)
Solvent: 125.0 parts by weight of acetone
To produce a suitable preparation, 1 part by weight of active compound is mixed with the stated amount of solvent, and the concentrate is diluted with water to the desired concentration.
Vessels are filled with sand, a solution of the active ingredient, a suspension containing eggs and larvae of the southern root-knot nematode (Meloidogyne incognita) and salad seeds. The salad seeds germinate and the seedlings grow. Galls develop in the roots.
After 14 days the nematicidal activity is determined on the basis of the percentage of gall formation. 100% means no galls were found and 0% means the number of galls found on the roots of the treated plants was equal to that in untreated control plants.

[5] = tested on: Nippostrongylus brasiliensis; experiment: Nippostrongylus brasiliensis assay (NIPOBR), acetylcholine esterase readout; format: cell-based; conditions: read-out: activity (reduction of AChE compared to negative control)
Experimental: Nippostrongylus Brasiliensis—Assay (NIPOBR)
Adult Nippostrongylus brasiliensis were washed with saline buffer containing 100 U/ml penicillin, 0.1 mg/ml streptomycin and 2.5 μg/ml amphotericin B. Test compounds were dissolved in DMSO and worms were incubated in medium in a final concentration of 10 μg/ml (10 ppm) respectively 1 μg/ml (1 ppm). An aliquot of the medium was used to determine the acetylcholine esterase activity in comparison to a negative control. The principle of measuring acetylcholine esterase as readout for anthelmintic activity was described in Rapson et al (1986) and Rapson et al (1987).

[6] = Haemonchus contortus, 120 h, application rate 20 ppm, read-out: activity (percentage of larval mortality)

Row | SMILES | mortality at 20 ppm [1, 6] [%] | mortality at 20 ppm [2] [%] | nematicidal activity (percentage of gall formation) [4] [%] | logP (HCOOH)[a] [3] | other results
1 | O=C(NCC(F)(F)c1ccc(-c2ccc(Cl)cc2)cc1F)c1cccnc1C(F)(F)F [Example 20] | 90 | 100 | – | – | –
2 | O=C(NCC(F)(F)c1ccc(-c2ccc(F)cc2)cc1Cl)c1cccnc1C(F)(F)F [Example 9] | 100 | 100 | 100 | – | chromatographic logP ([3]; reversed phase HPLC columns): 3.68
3 | O=C(NCC(F)(F)c1ccc(-c2ccc(F)cc2)cc1C(F)(F)F)c1ccccc1C(F)(F)F [Example 12, N-(2,2-Difluoro-2-(4′-fluoro-3-(trifluoromethyl)-[1,1′-biphenyl]-4-yl)ethyl)-2-(trifluoromethyl)benzamide] | 100 | 100 | – | – | inhibition at 10 µg/mL ([5]; 10 μg/ml, adult worms): ≥ 75%
4 | O=C(NCC(F)(F)c1ccc(-c2ccc(Cl)cc2)cc1C(F)(F)F)c1cccnc1C(F)(F)F [Example 18] | 100 | 100 | – | – | –
5 | O=C(NCC(F)(F)c1c(F)cc(-c2ccc(F)cc2)cc1F)c1ccccc1C(F)(F)F [Example 16] | 100 | 100 | – | – | chromatographic logP ([3]; reversed phase HPLC columns): 3.95
6 | O=C(NCC(F)(F)c1ccc(-c2ccc(Cl)cc2)cc1Cl)c1cccnc1C(F)(F)F [Example 4] | – | – | – | – | chromatographic logP ([3]; reversed phase HPLC columns): 4.14; mortality at 4 ppm ([1]; Haemonchus contortus, 120 h, application rate 4 ppm, read-out: activity (percentage of larval mortality)): 90%; mortality at 4 ppm ([2]; application rate 4 ppm): 100%
7 | COc1cc(-c2ccc(F)cc2)ccc1C(F)(F)CNC(=O)c1ccccc1C(F)(F)F [Example 37] | 90 | 100 | – | – | chromatographic logP [3]: 3.89; inhibition at 10 µg/mL [5]: ≥ 75%
8 | O=C(NCC(F)(F)c1ccc(-c2ccc(F)cc2)cc1F)c1ccccc1C(F)(F)F [Example 7, N-(2-(3,4′-Difluoro-[1,1′-biphenyl]-4-yl)-2,2-difluoroethyl)-2-(trifluoromethyl)benzamide] | 90 | 100 | – | – | inhibition at 10 µg/mL ([5]; 10 μg/ml, adult worms): ≥ 75%
9 | COc1cc(-c2ccc(C(F)(F)CNC(=O)c3ccccc3C(F)(F)F)c(Cl)c2)ccc1F [Example 34] | 100 | 100 | – | – | chromatographic logP ([3]; reversed phase HPLC columns): 4.09
10 | O=C(NCC(F)(F)c1ccc(-c2ccc(OC(F)(F)F)cc2)cc1F)c1ccccc1C(F)(F)F [Example 14] | 90 | 100 | – | – | –
11 | N#Cc1ccc(-c2ccc(C(F)(F)CNC(=O)c3ccccc3C(F)(F)F)c(Cl)c2)cc1C(F)(F)F [Example 97] | – | – | – | 4.12 | activity (percentage of larval mortality) ([1]; application rate 20 ppm): 80%
12 | O=C(NCC(F)(F)c1ccc(-c2ccc(C(F)(F)F)c(F)c2)cc1Cl)c1ccccc1C(F)(F)F [Example 22] | 90 | 100 | – | – | chromatographic logP [3]: 4.62; inhibition at 10 µg/mL [5]: ≥ 75%
13 | O=C(NCC(F)(F)c1ccc(-c2c(F)cccc2F)cc1Cl)c1ccccc1C(F)(F)F [Example 31] | 80 | 100 | – | – | chromatographic logP ([3]; reversed phase HPLC columns): 3.99
14 | O=C(NCC(F)(F)c1ccc(-c2ccc(F)c(Cl)c2)cc1Cl)c1ccccc1C(F)(F)F [Example 94] | – | – | 100 | 4.57 | –
15 | CSc1ccc(-c2ccc(C(F)(F)CNC(=O)c3ccccc3C(F)(F)F)c(Cl)c2)cc1 [Example 26] | 100 | 100 | – | – | chromatographic logP ([3]; reversed phase HPLC columns): 4.43
16 | Cc1cc(-c2cc(F)c(F)c(F)c2)ccc1C(F)(F)CNC(=O)c1ccccc1C(F)(F)F [Example 109] | – | – | 100 | 4.48 | –
17 | O=C(NCC(F)(F)c1ccc(-c2ccc(F)cc2)cc1Cl)c1cccnc1Cl [Example 63] | – | – | 100 | 3.46 | –

Row | SMILES | mortality at 20 ppm [1, 6] [%] | mortality at 20 ppm [2] [%] | nematicidal activity (percentage of gall formation) [4] [%] | logP (HCOOH)[a] [3] | other results
18 | O=C(NCC(F)(F)c1ccc(-c2ccc(Cl)c(Cl)c2)cc1Cl)c1ccccc1C(F)(F)F [Example 70] | – | – | 90 | 4.93 | –
19 | O=C(NCC(F)(F)c1c(F)cc(-c2ccc(SC(F)(F)F)cc2)cc1F)c1ccccc1C(F)(F)F [Example 47] | – | – | 90 | 4.82 | –
20 | O=C(NCC(F)(F)c1ccc(-c2ccc(OC(F)F)cc2)cc1Cl)c1ccccc1C(F)(F)F [Example 68] | – | – | 100 | 4.03 | –
21 | O=C(NCC(F)(F)c1ccc(-c2ccc(F)cc2F)cc1Cl)c1ccccc1C(F)(F)F [Example 36] | 100 | 100 | – | – | chromatographic logP [3]: 4.22; inhibition at 10 µg/mL [5]: ≥ 75%
22 | O=C(NCC(F)(F)c1ccc(-c2ccc(SC(F)(F)F)cc2)cc1Cl)c1ccccc1C(F)(F)F [Example 23] | 100 | 100 | – | – | chromatographic logP [3]: 4.98; inhibition at 10 µg/mL [5]: ≥ 75%
23 | O=C(NCC(F)(F)c1ccc(-c2ccc(F)cc2)cc1Cl)c1c(F)cccc1F [Example 60] | – | – | 100 | 3.85 | –
24 | O=C(NCC(F)(F)c1ccc(-c2ccc(Cl)cc2)cc1F)c1ccccc1C(F)(F)F [Example 5] | 80 | 100 | – | – | inhibition at 10 µg/mL [5]: ≥ 75%
25 | O=C(NCC(F)(F)c1ccc(-c2ccc(Cl)cc2)cc1C(F)(F)F)c1ccccc1C(F)(F)F [Example 13] | 90 | 100 | – | – | inhibition at 10 µg/mL ([5]; 10 μg/ml, adult worms): ≥ 75%
26 | O=C(NCC(F)(F)c1ccc(-c2ccc(F)c(C(F)(F)F)c2)cc1Cl)c1ccccc1C(F)(F)F [Example 21] | 90 | 100 | – | – | chromatographic logP [3]: 4.55; inhibition at 10 µg/mL [5]: ≥ 75%
27 | O=C(NCC(F)(F)c1ccc(-c2ccccc2)cc1Cl)c1ccccc1C(F)(F)F [Example 2] | 100 | 100 | – | – | chromatographic logP [3]: 4.05; inhibition at 10 µg/mL ([5]; 10 μg/ml, adult worms): ≥ 75%
28 | Cc1cc(-c2cccc(Cl)c2)ccc1C(F)(F)CNC(=O)c1ccccc1C(F)(F)F [Example 123] | – | – | 100 | 4.56 | –
29 | Cc1cc(-c2ccc(F)c(F)c2)ccc1C(F)(F)CNC(=O)c1ccccc1C(F)(F)F [Example 120] | – | – | 100 | 4.2 | –
30 | O=C(NCC(F)(F)c1ccc(-c2ccc(OC(F)(F)F)cc2)cc1C(F)(F)F)c1ccccc1C(F)(F)F [Example 15] | 90 | 100 | – | – | –
31 | O=C(NCC(F)(F)c1ccc(-c2ccc(F)cc2)cc1Cl)c1nccnc1C(F)(F)F [Example 61] | – | – | 100 | 3.85 | –
32 | O=C(NCC(F)(F)c1ccc(-c2ccc(F)cc2)cc1Cl)c1ncccc1C(F)(F)F [Example 62] | – | – | 100 | 4.05 | –
33 | O=C(NCC(F)(F)c1ccc(-c2ccc(F)cc2)cc1F)c1cccnc1C(F)(F)F [Example 19] | 100 | 100 | – | – | –
34 | O=C(NCC(F)(F)c1ccc(-c2cc(F)c(F)c(F)c2)cc1Cl)c1ccccc1Cl [Example 115] | – | – | 100 | 4.23 | –
